Test results reported in patent US11390580B2, “Anti-fungals targeting the synthesis of fungal shingolipids” (THE RESEARCH FOUNDATION FOR THE STATE UNIVERSITY OF NEW YORK, priority 2014, dated 2022).
≈ marks a conversion by molar mass, not a printed value. Where “and” joins values, the source holds several entries; their conditions need not be identical. Identical values can stand only once. Like-named read-outs stand apart in the source and are kept apart here.

What was measured:
C. neoformans H99 [1] = experiment: Comparison studies, intravenous (CNS) cryptococcosis survival; type: in vivo, mice
Procedure: For survival studies, 4-week old CBA/J female mice (Jackson Laboratory, Bar Harbor, Me.) were used. Total of forty mice were infected by tail vein injection of 200 μL containing 10^5 cells of C. neoformans H99 and were randomly separated into 5 groups (8 mice per group). Treatment started within 2 hours of infection. The treated mice received an intraperitoneal injection of 1.2 mg/kg/day of BHBM, 1, amphotericin B or 10 mg/kg/day of fluconazole in 100 μL final volume of PBS containing 0.4% DMSO. Untreated mice, received 100 μL of PBS/0.4% DMSO. Mice were fed ad-libitum and monitored closely for sign of discomfort and meningitis. Mice showing abnormal gait, lethargy, tremor, significant loss of body weight, or inability to reach water or food were sacrificed and survival was counted until that day.

P. murina [2] = tested on: P. murina
A549 cell line = experiment: In vitro toxicity; type: cell-based
Candida albicans SC-5314 = experiment: Animal studies for candidiasis (intravenous infection); type: in vivo, mice
Procedure: For survival studies, 8-week old CBA/J female mice (Jackson Laboratory) were used. Eight mice per treatment or control group were used. Mice were infected by intravenous inoculation of 100 μL containing 1×10^5 cells of Candida albicans SC-5314 strain. […] Untreated mice, received 100 μL of PBS/0.4% DMSO. Mice were feed ad-libitum and monitored closely for sign of discomfort. At the end of the survival study, tissue burden culture was performed in mice that survived the infection. Mice were sacrificed and their organs were extracted and homogenized in 10 ml sterile PBS using homogenizer. Organ homogenates were diluted 10 times in PBS, and 100 μL was plated on YPD agar plates and incubated at 30° C. for 72 hours for CFU count.

C. neoformans H99 [3] = experiment: Animal studies for cryptococcosis (intranasal infection); type: in vivo, mice
P. murina [4] = tested on: P. murina; remark: listed apart in the source
Cryptococcus neoformans = experiment: In vitro susceptibility testing (MIC); type: cell-based
C. neoformans [5] = experiment: Resistance assay, daily passages in sub-MIC drug; conditions: 15 days of passages below the MIC
P. murina [6] = experiment: Animal studies for pneumocystosis, CD4-depleted mice; conditions: mouse, in vivo
[7] = tested on: synthesis of GlcCer in mammalian (J774) cells; experiment: In vivo labeling with 3H palmitate, TLC of GlcCer; type: cell-based, murine; conditions: 3H palmitate labeling
Solubility = type: physicochemical; conditions: at 1 mg/ml concentration
[8] = In vitro toxicity, MTT assay; conditions: mouse, J774.16 macrophage cells
[9] = In vivo toxicity in uninfected mice; conditions: treated daily for 60 days
C. neoformans [10] = experiment: Synergistic assay (fractional inhibitory index, FIC)
Candida spp = experiment: In vitro susceptibility testing; type: cell-based; conditions: most Candida spp examined
[11] = tested on: synthesis of GlcCer in C. neoformans cells; experiment: In vivo labeling with 3H palmitate, TLC of GlcCer; conditions: 3H palmitate labeling
C. neoformans [12] = experiment: In vitro killing assay (time-kill, CFU); type: cell-based, Cryptococcus neoformans
Procedure: At the illustrated time points, aliquots were taken and diluted and 100 μL was plated onto yeast peptone dextrose (YPD) plates. YPD plates were incubated in a 30° C. incubator and, after 72 hours, colony forming units (CFU) were counted and recorded.

L2 cell line = experiment: In vitro toxicity; type: cell-based
[13] = tested on: C. neoformans sphingolipids; experiment: Sphingolipid levels by TLC and lipid mass spectrometry; type: cell-based, Cryptococcus neoformans; conditions: TLC, confirmed by mass spectrometry
Procedure: Labeling fungal cells. […] Samples without drug were included as control. Before lipid extraction, lipid internal standards (C17 ceramide and C17 sphingosine) were added. Lipids were then extracted following the methods of […] and Bligh and Dyer and one fourth of the sample was aliquoted for determination of the inorganic phosphate. The remainder of the sample was subjected to base hydrolysis and then analyzed using LC/MS. Results were normalized with the inorganic phosphate levels.

C. neoformans (H99) = experiment: Transmission electron microscopy of treated cells; conditions: 4 μg/mL, 6 hours
Pneumocystis murina = experiment: In vitro testing by ATP content (luciferin-luciferase); conditions: read-out: percentage inhibition of ATP
Pneumocystis jiroveci = experiment: as above; conditions: read-out: percentage inhibition of ATP

In the case of C[C@@H]1[C@H](O)[C@@H](C)/C=C/C=C/C=C/C=C/C=C/C=C/C=C/[C@H](O[C@@H]2O[C@H](C)[C@@H](O)[C@H](N)[C@@H]2O)C[C@@H]2O[C@](O)(C[C@@H](O)C[C@@H](O)[C@H](O)CC[C@@H](O)C[C@@H](O)CC(=O)O[C@H]1C)C[C@H](O)[C@H]2C(=O)O [Amphotericin B], the average survival (C. neoformans H99 [1]; IP, 1.2 mg/kg/day BHBM, 1, amphotericin B, 10 mg/kg/day fluconazole) is reported as 23.5 ± 6.5 days.
With O=C(NN=Cc1ccc(O)c(Br)c1)c1cccc(Br)c1 [Compound 1, 3-bromo-N′-(3-bromo-4-hydroxybenzylidene) benzohydrazide] the “toxicity in mice immunosuppressed with corticosteroids” value (P. murina [2]) was “some toxicity”, the “asci and troph burdens vs vehicle” value (P. murina [2]; 1.25 mg/kg/day and 12.5 mg/kg/day for 14 days) was “significantly reduced” and the “survival vs control steroid negative controls” value (P. murina [2]; 1.25 and 12.5 mg/kg/day, 14 days) was “did not increase survival”. The toxicity (A549 cell line) was “slight to moderate toxicity”, the mice alive (Candida albicans SC-5314; 1.2 mg/kg/day intraperitoneally, after 21 days of infection) was 75% and the “clearance of infection (tissue burden)” value (Candida albicans SC-5314; day 21, surviving treated mice) was “able to clear C. albicans infection”. The mice surviving infection (C. neoformans H99 [3]; 1.2 mg/Kg/day intraperitoneally, up to 60 days) was 70%, the “fungal burden in brain” value (C. neoformans H99 [3]; 1.2 mg/Kg/day, day 60) was “No C. neoformans cells were found in brains” and the “fungal burden in lung” value (C. neoformans H99 [3]; 1.2 mg/Kg/day, day 60, compared to infected untreated mice) was “decrease the fungal burden in the lung”. For the same molecule, the brain histology (C. neoformans H99 [3]; day 60) was “no fungal cells and normal structure”, the lung histology (C. neoformans H99 [3]; day 60) was “granulomatous response limited in few areas of the lung” and the survival (P. murina [4]; 14 days of treatment) was “improved survival”. For the same molecule, the “number of asci in the lung” value (P. murina [4]; day 14) was “significantly decreased”, the “antifungal activity of derivatives” value (Cryptococcus neoformans) was “improved activity” and the MFC (Cryptococcus neoformans; Cryptococcus neoformans, read-out: MFC (minimum fungicidal concentration)) was 1.2 µg/mL (≈ 3.01 µM). The development of resistance (C. neoformans [5]) was “do not develop resistance”, the signs of toxicity (P. murina [6]) was “no signs of toxicity” and the “inhibition of the synthesis of GlcCer” value [7] was “no significant changes”. For the same molecule, the “inhibition of the synthesis of GlcCer” value ([7]; listed as #5285729) was “not in mammalian (J774) cells”, the DMSO required (Solubility) was 50% and the EC50 at 48 h [8] was 50 µg/mL (≈ 126 µM). The “appearance, weight, physical activity and behavior” value [9] was “appeared normal”, the FIC index (C. neoformans [10]; combined with Amphotericin B) was 0.77 and the FIC index (C. neoformans [10]; combined with Fluconazole) was 0.47. The interaction (C. neoformans [10]; combined with Tunicamycin) was “additive”, the FIC index (C. neoformans [10]; combined with caspofungin) was 1 and the in vitro susceptibility (Candida spp) was “resistant”. For the same molecule, the “inhibition of the synthesis of GlcCer” value [11] was “significantly inhibit the synthesis of GlcCer”, the type of killing (C. neoformans [12]; time-kill assay) was “time-dependent killing” and the dead cells (C. neoformans [12]; within 24 hours) was 100%. For the same molecule, the toxicity (L2 cell line) was “slight to moderate toxicity”, the sphingosine level [13] was “accumulation of sphingosines” and the “number of vacuoles per μm^2 of cell surface area” value (C. neoformans (H99)) was 0.93±0.54.
Work on N=C(N)c1ccc(OCCCCCOc2ccc(C(=N)N)cc2)cc1 [Pentamidine, reference compound] yielded an inhibition at 1 µg/mL (Pneumocystis murina; 24 h) of 78.2%, an inhibition at 1 µg/mL (Pneumocystis murina; 48 h) of 80.3% and an inhibition at 1 µg/mL (Pneumocystis murina; 72 h) of 74.1%. It also gave an inhibition at 1 µg/mL (Pneumocystis murina; 96 h) of 27.8%, an inhibition at 1 µg/mL (Pneumocystis jiroveci; 24 h) of 45.7% and an inhibition at 1 µg/mL (Pneumocystis jiroveci; 48 h) of 86.5%. The inhibition at 1 µg/mL (Pneumocystis jiroveci; 72 h) was 84.2% and the inhibition at 1 µg/mL (Pneumocystis jiroveci; 96 h) was 81.4%.
For OC(Cn1cncn1)(Cn1cncn1)c1ccc(F)cc1F [fluconazole], the average survival (C. neoformans H99 [1]; mouse, in vivo) was 10 ± 2 days and 10.0 ± 2.0 days.
